Patent US20020122768A1, “Stable radiopharmaceutical compositions and methods for preparation thereof” (priority 2000, published 2002)

Legend:
[1] = Solution stability of ^177Lu-C at −78° C., RCP by radio-HPLC; format: physicochemical; conditions: for RCP (%) t = 0 / RCP (%) t = 3 days / RCP (%) t = 7 days / RCP (%) change: ^177Lu-C prepared using 2 mg GA; for RCP (%) t = 0 / RCP (%) t = 3 days / RCP (%) t = 7 days: degassed, second stabilizer (20 mg AA, 20 mg DSA, 10 mg 2,3,4-THBA, 10 mg 3,4,5-THBA) added post-labeling; for RCP (%) change: second stabilizer added post-labeling, t = 0 to 7 days; for stabilization compared with AA and DSA: ^177Lu-C, second stabilizer
Description: The integrity of a radiopharmaceutical is measured by the radiochemical purity (RCP) of the radiolabeled compound using ITLC or more preferably HPLC. The advantage of using HPLC is that radio-impurities caused by radiolytic degradation can be separated from the radiopharmaceutical under optimized chromatographic conditions. […] The radiopharmaceutical compositions of this invention are effective in maintaining the long-term stability of samples that have been frozen, thawed, and re-tested periodically for 7 days.
The initial RCP of a radiopharmaceutical is largely dependent on radiolabeling conditions such as pH, heating temperature and time. Once a radiopharmaceutical is prepared in high yield, the stability of the radiopharmaceutical composition is measured by the` RCP change of the radiopharmaceutical over a certain period of time. For comparison purposes, sodium gentisate or sodium ascorbate was often used as the reference since they have been used in various radiopharmaceutical formulations.
HPLC method 3 used a HP-1100 HPLC system with a UV/visible detector (λ=220 nm), an IN-US radio-detector, and a Zorbax C18 column (4.6 mm×250 mm, 80 Å pore size). The flow rate was 1 mL/min with a gradient mobile phase starting from 90% solvent A (0.025 M ammonium acetate buffer, pH 6.8) and 10% solvent B (acetonitrile) at 0 min to 88% solvent A and 12% solvent B at 18 min, followed by an isocratic wash using 40% of solvent A and 60% solvent B from 19 to 25 min.
The ITLC method used Gelman Sciences silica-gel ITLC paper strips and 1:1 mixture of acetone and saline as eluant. By this method, the radiolabeled compounds migrate to the solvent front while [^90Y]/^177Lu]colloid and [^90Y]/^177Lu]acetate remain at the origin.
(§1) The 0.5 M ammonium acetate buffer (pH 8.0) was first degassed under vacuum for 1-2 min. COMPOUND C and gentisic acid (sodium salt, GA) were dissolved in the degassed buffer to give a concentration of 100 μg/mL for COMPOUND C and 2 mg/mL for GA. The resulting solution was immediately degassed under vacuum for another 1-2 min. To a clean sealed 5 mL vial was added 1.0 mL of the degassed 0.5 M ammonium acetate buffer (pH 8.0) containing 100 μg COMPOUND C and 2 mg GA. The solution was degassed again under vacuum. Upon addition of ˜20 μL of ^177LuCl3 solution (˜20 mCi) in 0.05 N HCl, the reaction mixture was heated at 100° C. for 5 min. After cooling to room temperature, a sample of the resulting solution was analyzed by HPLC (Method 3, injection volume=5 μL) and ITLC. […] To the solution above was added 0.5 mL of sodium ascorbate solution (40 mg/mL in 0.5 M ammonium acetate buffer, pH=7.4). The resulting mixture was then kept in a dry-ice box (−78° C.) for 7 days. Samples were analyzed at t=0, 3 and 7 days.
as §1, with “COMPOUND” for “The 0.5 M ammonium acetate buffer (pH 8.0) was first degassed under vacuum for 1-2 min. COMPOUND”, “1.0 μL” for “1.0 mL”, “of 2,3,4-THBA” for “of sodium ascorbate”, “solution (20” for “solution (40”
COMPOUND C and gentisic acid (sodium salt, GA) were dissolved in the degassed buffer to give a concentration of 100 μg/mL for COMPOUND C and 2 mg/mL for GA. The resulting solution was immediately degassed under vacuum for another 1-2 min. […]

[2] = Solution stability of ^90Y-A at room temperature, RCP by radio-HPLC; format: physicochemical; conditions: for RCP (%) change: ^90Y-A, t = 0 h to last time point
Description: The advantage of using HPLC is that radio-impurities caused by radiolytic degradation can be separated from the radiopharmaceutical under optimized chromatographic conditions.
The initial RCP of a radiopharmaceutical is largely dependent on radiolabeling conditions such as pH, heating temperature and time. Once a radiopharmaceutical is prepared in high yield, the stability of the radiopharmaceutical composition is measured by the` RCP change of the radiopharmaceutical over a certain period of time.
Analytical Methods. HPLC method 1 used a HP-1100 HPLC system with a UV/visible detector (λ=220 nm), an IN-US radio-detector, and a Zorbax C18 column (4.6 mm×250 mm, 80 Å pore size).
The ITLC method used Gelman Sciences silica-gel ITLC paper strips and 1:1 mixture of acetone and saline as eluant.
(§2) The reaction mixture was heated at 100° C. for 10 min. A sample of the resulting solution was first diluted 20-fold with 2 mM DTPA solution (pH=5), and was then analyzed by HPLC (Method 1, injection volume=1-2 μL) and ITLC. […] The resulting solution was kept at room temperature for 6 days.
as §2, §2
The reaction mixture was heated at 100° C. for 10 min. A sample of the resulting solution was first diluted 20-fold with 2 mM DTPA solution (pH=5), and was then analyzed by HPLC (Method 1, injection volume 1-2 μL) and ITLC. […] The resulting solution was kept at room temperature for 7 days.
(§3) The reaction mixture was heated at 100° C. for 10 min. A sample of the resulting solution was first diluted 20-fold with 2 mM DTPA solution (pH=5), and was then analyzed by HPLC (Method 1, injection volume=1-2 μL) and ITLC. […] The resulting solution was kept at room temperature for 7 days.
as §3, §3

[3] = ^90Y-A (~20 mCi), 10 mg stabilizer, room temperature
[4] = 10 mg stabilizer, room temperature
[5] = ^90Y-A (~20 mCi), 2 mg stabilizer, room temperature

| Molecule | RCP (%) t = 0 [1] | RCP (%) t = 3 days [1] | RCP (%) t = 7 days [1] | RCP (%) change [1] | RCP (%) t = 0 h [2, 3] | RCP (%) t = 24 h [2, 3] | RCP (%) t = 72 h [2, 3] | RCP (%) t = 148 h [2, 3] | RCP (%) change [2, 4] | stabilization compared with AA and DSA [1] | RCP (%) t = 0 h [2, 5] | RCP (%) t = 24 h [2, 5] | RCP (%) t = 48 h [2, 5] | RCP (%) t = 120 h [2, 5] | RCP (%) t = 144 h [2, 5] | stabilization compared with GA ([2]; ^90Y-A at room temperature, 2 mg stabilizer) |
| --- | --- | --- | --- | --- | --- | --- | --- | --- | --- | --- | --- | --- | --- | --- | --- | --- |
| 2,4-disulfonatobenzeneamine [DSA] | 97.4% | 95.9% | 93.0% | 4.4% | 92.2% | 89.3% | 82.8% | 80.5% | 11.7% |  |  |  |  |  |  |  |
| O=C(O)c1ccc(O)c(O)c1O [2,3,4-THBA, 2,3,4-trihydroxybenzoic acid] | 97.4% | 96.5% | 95.4% | 2.0% |  |  |  |  |  | better stabilization |  |  |  |  |  |  |
| O=C(O)c1cc(O)c(O)c(O)c1 [3,4,5-THBA, 3,4,5-trihydroxybenzoic acid] | 97.2% | 96.7% | 95.0% | 2.2% | 93.3% | 92.4% | 88% | 79.5% | 13.8% | better stabilization | 95.3% | 89.3% | 80.6% | 74.3% | 73.4% | better stabilizers than GA |
